Data: ChEMBL document CHEMBL1926563, “Synthesis, antimicrobial, antimycobacterial and structure-activity relationship of substituted pyrazolo-, isoxazolo-, pyrimido- and mercaptopyrimidocyclohepta[b]indoles” (2012)
Converted amounts (≈) assume the structure as drawn. The source made the active and inactive calls. The calls are words filed in the database; no cut-off is given here.

Key:
Bacillus subtilis [1] = assay: Antibacterial activity against Bacillus subtilis NCIM 2063 assessed as zone of inhibition at 100 ug/disc after 24 hrs by disk diffusion method; assay type: functional; details: NCIM 2063, 24 h, read-out: DIZ
Aspergillus niger [2] = assay: Antifungal activity against Aspergillus niger NCIM 596 assessed as zone of inhibition at 200 ug/disc after 48 hrs by disk diffusion method; assay type: functional; details: NCIM 596, 48 h, read-out: DIZ
Klebsiella pneumoniae [3] = assay: Antibacterial activity against Klebsiella pneumoniae NCIM 2957 assessed as zone of inhibition at 200 ug/disc after 24 hrs by disk diffusion method; assay type: functional; details: NCIM 2957, 24 h, read-out: DIZ
Curvularia lunata [4] = assay: Antifungal activity against Curvularia lunata NCIM 716 assessed as zone of inhibition at 100 ug/disc after 48 hrs by disk diffusion method; assay type: functional; details: NCIM 716, 48 h, read-out: DIZ
Fusarium solani [5] = assay: Antifungal activity against Fusarium solani NCIM 1330 assessed as zone of inhibition at 100 ug/disc after 48 hrs by disk diffusion method; assay type: functional; details: NCIM 1330, 48 h, read-out: DIZ
Proteus vulgaris [6] = assay: Antibacterial activity against Proteus vulgaris NCIM 2027 assessed as zone of inhibition at 100 ug/disc after 24 hrs by disk diffusion method; assay type: functional; details: NCIM 2027, 24 h, read-out: DIZ
Klebsiella pneumoniae [7] = assay: Antibacterial activity against Klebsiella pneumoniae NCIM 2957 assessed as zone of inhibition at 100 ug/disc after 24 hrs by disk diffusion method; assay type: functional; details: NCIM 2957, 24 h, read-out: DIZ
Curvularia lunata [8] = assay: Antifungal activity against Curvularia lunata NCIM 716 assessed as zone of inhibition at 200 ug/disc after 48 hrs by disk diffusion method; assay type: functional; details: NCIM 716, 48 h, read-out: DIZ
Aspergillus niger [9] = assay: Antifungal activity against Aspergillus niger NCIM 596 assessed as zone of inhibition at 100 ug/disc after 48 hrs by disk diffusion method; assay type: functional; details: NCIM 596, 48 h, read-out: DIZ
Staphylococcus aureus [10] = assay: Antibacterial activity against Staphylococcus aureus NCIM 5021 assessed as zone of inhibition at 200 ug/disc after 24 hrs by disk diffusion method; assay type: functional; details: NCIM 5021, 24 h, read-out: DIZ
[11] = system: Mycobacterium tuberculosis; assay: Antimycobacterial activity against Mycobacterium tuberculosis H37Rv at 1.5 to 50 ug/ml after 7 days by resazurin microtiter plate assay; assay type: functional, organism-based
Proteus vulgaris [12] = assay: Antibacterial activity against Proteus vulgaris NCIM 2027 assessed as zone of inhibition at 200 ug/disc after 24 hrs by disk diffusion method; assay type: functional; details: NCIM 2027, 24 h, read-out: DIZ
Bacillus subtilis [13] = assay: Antibacterial activity against Bacillus subtilis NCIM 2063 assessed as zone of inhibition at 200 ug/disc after 24 hrs by disk diffusion method; assay type: functional; details: NCIM 2063, 24 h, read-out: DIZ
Staphylococcus aureus [14] = assay: Antibacterial activity against Staphylococcus aureus NCIM 5021 assessed as zone of inhibition at 100 ug/disc after 24 hrs by disk diffusion method; assay type: functional; details: NCIM 5021, 24 h, read-out: DIZ
Fusarium solani [15] = assay: Antifungal activity against Fusarium solani NCIM 1330 assessed as zone of inhibition at 200 ug/disc after 48 hrs by disk diffusion method; assay type: functional; details: NCIM 1330, 48 h, read-out: DIZ
[16] = system: Mycobacterium tuberculosis; assay: Antimycobacterial activity against Mycobacterium tuberculosis H37Rv after 7 days by resazurin microtiter plate assay; assay type: functional; details: 168 h

| Structure (SMILES) | zone of inhibition at 100 µg/disc (Bacillus subtilis [1]) [mm] | zone of inhibition at 200 µg/disc (Aspergillus niger [2]) [mm] | zone of inhibition at 200 µg/disc (Klebsiella pneumoniae [3]) [mm] | zone of inhibition at 100 µg/disc (Curvularia lunata [4]) [mm] | zone of inhibition at 100 µg/disc (Fusarium solani [5]) [mm] | zone of inhibition at 100 µg/disc (Proteus vulgaris [6]) [mm] | zone of inhibition at 100 µg/disc (Klebsiella pneumoniae [7]) [mm] | zone of inhibition at 200 µg/disc (Curvularia lunata [8]) [mm] | zone of inhibition at 100 µg/disc (Aspergillus niger [9]) [mm] | zone of inhibition at 200 µg/disc (Staphylococcus aureus [10]) [mm] | MIC [11] | zone of inhibition at 200 µg/disc (Proteus vulgaris [12]) [mm] | zone of inhibition at 200 µg/disc (Bacillus subtilis [13]) [mm] | zone of inhibition at 100 µg/disc (Staphylococcus aureus [14]) [mm] | zone of inhibition at 200 µg/disc (Fusarium solani [15]) [mm] | MIC [16] [µg/mL] |
| --- | --- | --- | --- | --- | --- | --- | --- | --- | --- | --- | --- | --- | --- | --- | --- | --- |
| c1ccc(-n2ncc3c2-c2[nH]c4ccccc4c2CCC3)cc1 | 24 | 30 | 24 | 29 | 28 | 20 | 21 | 31 | 26 | 27 | inactive | 23 | 26 | 25 | 33 |  |
| Cc1ccc2[nH]c3c(c2c1)CCC/C(=C\O)C3=O | 28 | 27 | 28 | 26 | 23 | 22 | 25 | 28 | 23 | 29 |  | 25 | 30 | 26 | 26 | 25 (≈ 104 µM) |
| Cc1ccc2[nH]c3c(c2c1)CCCc1cnc(O)nc1-3 | 21 | 18 | 23 | 18 | 14 | 19 | 21 | 21 | 15 | 25 |  | 21 | 24 | 23 | 19 | 50 (≈ 188 µM) |
| Cc1cccc2c3c([nH]c12)-c1nocc1CCC3 |  |  |  |  |  |  |  |  |  |  |  |  |  |  |  | 25 (≈ 105 µM) |
| Cc1ccc2[nH]c3c(c2c1)CCCc1cnc(S)nc1-3 | 14 | 16 | 12 | 16 | 13 | 10 | 11 | 20 | 14 | 15 |  | 12 | 16 | 13 | 16 | 50 (≈ 178 µM) |
| O=C1/C(=C/O)CCCc2c1[nH]c1ccccc21 | 26 | 25 | 26 | 24 | 21 | 23 | 24 | 25 | 23 | 26 |  | 25 | 27 | 24 | 23 | 50 (≈ 220 µM) |
| Oc1ncc2c(n1)-c1[nH]c3ccccc3c1CCC2 | 27 | 15 | 24 | 16 | 13 | 21 | 22 | 18 | 11 | 28 | inactive | 23 | 29 | 25 | 16 |  |
| Cc1ccc2c3c([nH]c2c1)C(=O)/C(=C/O)CCC3 |  |  |  |  |  |  |  |  |  |  | inactive |  |  |  |  |  |
| Cc1cccc2c3c([nH]c12)-c1nc(S)ncc1CCC3 |  |  |  |  |  |  |  |  |  |  |  |  |  |  |  | 50 (≈ 178 µM) |
| Cc1ccc2c3c([nH]c2c1)-c1nocc1CCC3 |  |  |  |  |  |  |  |  |  |  |  |  |  |  |  | 25 (≈ 105 µM) |
| Cc1ccc2[nH]c3c(c2c1)CCCc1cnn(-c2ccccc2)c1-3 | 29 | 30 | 28 | 31 | 30 | 21 | 26 | 31 | 29 | 30 | inactive | 23 | 31 | 27 | 34 |  |
| Cc1ccc2[nH]c3c(c2c1)CCCc1conc1-3 | 30 | 31 | 29 | 29 | 31 | 26 | 26 | 32 | 28 | 31 |  | 28 | 32 | 29 | 34 | 50 (≈ 210 µM) |
| Cc1cccc2c3c([nH]c12)-c1n[nH]cc1CCC3 |  |  |  |  |  |  |  |  |  |  |  |  |  |  |  | 25 (≈ 105 µM) |
| Cc1cccc2c3c([nH]c12)-c1nc(O)ncc1CCC3 |  |  |  |  |  |  |  |  |  |  | inactive |  |  |  |  |  |
| O=C1/C(=C/O)CCCc2c1[nH]c1ccc(Cl)cc21 | 28 | 31 | 30 | 27 | 29 | 25 | 28 | 30 | 25 | 33 |  | 28 | 32 | 31 | 30 | 25 (≈ 95.5 µM) |
| c1ccc2c3c([nH]c2c1)-c1nocc1CCC3 | 26 | 29 | 27 | 28 | 28 | 24 | 25 | 30 | 26 | 27 | inactive | 25 | 29 | 26 | 31 |  |
| Cc1ccc2c3c([nH]c2c1)-c1nc(S)ncc1CCC3 |  |  |  |  |  |  |  |  |  |  |  |  |  |  |  | 50 (≈ 178 µM) |
| Cc1ccc2c3c([nH]c2c1)-c1nc(O)ncc1CCC3 |  |  |  |  |  |  |  |  |  |  | inactive |  |  |  |  |  |
| Cc1ccc2[nH]c3c(c2c1)CCCc1c[nH]nc1-3 | 31 | 34 | 30 | 33 | 34 | 24 | 28 | 36 | 31 | 32 |  | 25 | 33 | 30 | 37 | 50 (≈ 211 µM) |
| Sc1ncc2c(n1)-c1[nH]c3ccccc3c1CCC2 | 12 | 13 | 11 | 13 | 11 | 8 | 9 | 16 | 10 | 13 | inactive | 10 | 14 | 11 | 14 |  |
| Cc1ccc2c3c([nH]c2c1)-c1n[nH]cc1CCC3 |  |  |  |  |  |  |  |  |  |  |  |  |  |  |  | 25 (≈ 105 µM) |
| Cc1ccc2c3c([nH]c2c1)-c1c(cnn1-c1ccccc1)CCC3 |  |  |  |  |  |  |  |  |  |  |  |  |  |  |  | 25 (≈ 79.8 µM) |
| Cc1cccc2c3c([nH]c12)-c1c(cnn1-c1ccccc1)CCC3 |  |  |  |  |  |  |  |  |  |  |  |  |  |  |  | 25 (≈ 79.8 µM) |
| Cc1cccc2c3c([nH]c12)C(=O)/C(=C/O)CCC3 |  |  |  |  |  |  |  |  |  |  |  |  |  |  |  | 50 (≈ 207 µM) |
